This is an account of results in ChEMBL document CHEMBL4507329, “Data for DCP probe BTZO-1” (2021).

The source made the active and inactive calls. No cut-off for these calls is given here.

The target in assay [1] is Cyclin-dependent kinase 8 (Homo sapiens, UniProt P49336). The assay is described as follows: Inhibition of CDK8 at compound concentration of 10.0 uM using the ScanMax (DiscoverX).
Assay [2] deals with GABA-A receptor; anion channel. The experiment in a line: GPCRScan assay: inhibition of GABAA/BZP. Format: protein-complex assay, Rattus norvegicus. Also noted: radioligand conc. used [nm] 0.6 – 4.0, parental cells brain tissue.
In assay [3] the target is T1, Macrophage migration inhibitory factor (Homo sapiens) (UniProt P14174).
T1 sequence (whole entry): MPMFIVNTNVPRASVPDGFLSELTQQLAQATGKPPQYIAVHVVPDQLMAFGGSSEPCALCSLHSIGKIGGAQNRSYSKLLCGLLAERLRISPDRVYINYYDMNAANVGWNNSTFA
The assay is described as follows: Apoptosis inhibition.

Assay [4] has as its target Macrophage migration inhibitory factor (Homo sapiens, UniProt P14174). The assay is described as follows: Scintillation proximity assay (SPA) measurement of selective [3H]-BTZO-1 binding to hMIF-His. (In general: SPA uses beads or plates that emit light when radiolabelled molecules are held near them.)
Assay [5] deals with Macrophage migration inhibitory factor (Rattus norvegicus, UniProt P30904). The assay is described as follows: Scintillation proximity assay (SPA) measurement of selective [3H]-BTZO-1 binding to rMIF-His.
Chain of Macrophage migration inhibitory factor (Rattus norvegicus, UniProt P30904) (P30904 2-115 limits assumed): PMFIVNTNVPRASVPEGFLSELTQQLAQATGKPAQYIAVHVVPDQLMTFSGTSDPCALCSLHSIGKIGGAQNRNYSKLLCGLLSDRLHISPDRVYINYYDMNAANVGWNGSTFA
Assay [6] concerns Epidermal growth factor receptor (Homo sapiens), P00533 [L861Q]. The settings on record: Compound concentration 1000.0 nM.
In assay [7] the target is Mitogen-activated protein kinase 9 (Homo sapiens) (UniProt P45984). As to conditions: Compound concentration 1000.0 nM.
Chain of Mitogen-activated protein kinase 9 (Homo sapiens) (P45984 whole entry, looked up): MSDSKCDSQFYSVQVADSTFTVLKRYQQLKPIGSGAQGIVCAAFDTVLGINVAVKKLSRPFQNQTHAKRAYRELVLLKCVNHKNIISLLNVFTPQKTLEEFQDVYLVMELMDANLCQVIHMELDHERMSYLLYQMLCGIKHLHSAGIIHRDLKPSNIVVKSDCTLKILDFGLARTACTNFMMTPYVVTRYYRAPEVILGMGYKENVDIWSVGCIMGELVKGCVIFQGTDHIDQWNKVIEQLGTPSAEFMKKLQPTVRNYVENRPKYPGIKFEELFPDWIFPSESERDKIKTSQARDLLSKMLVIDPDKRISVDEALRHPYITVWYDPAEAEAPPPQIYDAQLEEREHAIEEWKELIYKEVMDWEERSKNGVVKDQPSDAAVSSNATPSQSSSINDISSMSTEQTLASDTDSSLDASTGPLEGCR
Assay [8] deals with Cyclin-dependent kinase 14 (Homo sapiens) (UniProt O94921). The settings on record: Compound concentration 1000.0 nM.
Chain of Cyclin-dependent kinase 14 (Homo sapiens) (O94921 whole entry, canonical isoform): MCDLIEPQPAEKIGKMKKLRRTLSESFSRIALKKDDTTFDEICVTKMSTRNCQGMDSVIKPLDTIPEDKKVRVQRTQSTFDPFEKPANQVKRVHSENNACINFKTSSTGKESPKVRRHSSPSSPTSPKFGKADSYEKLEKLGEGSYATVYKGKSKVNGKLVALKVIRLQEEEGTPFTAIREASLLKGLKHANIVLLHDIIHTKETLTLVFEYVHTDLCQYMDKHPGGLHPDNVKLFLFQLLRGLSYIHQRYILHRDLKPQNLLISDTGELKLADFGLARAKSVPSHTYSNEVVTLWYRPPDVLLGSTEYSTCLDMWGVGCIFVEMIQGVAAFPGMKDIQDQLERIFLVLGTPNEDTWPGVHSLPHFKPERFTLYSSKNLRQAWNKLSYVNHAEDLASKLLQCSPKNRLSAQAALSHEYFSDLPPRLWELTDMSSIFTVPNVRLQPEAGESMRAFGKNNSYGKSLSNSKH
The test system of assay [9] is Phosphatidylinositol 4,5-bisphosphate 3-kinase catalytic subunit alpha isoform (Homo sapiens), P42336 [H1047Y]. As to conditions: Compound concentration 1000.0 nM.
Chain of Phosphatidylinositol 4,5-bisphosphate 3-kinase catalytic subunit alpha isoform (Homo sapiens), P42336 [H1047Y] (P42336 whole entry H1047Y, canonical isoform): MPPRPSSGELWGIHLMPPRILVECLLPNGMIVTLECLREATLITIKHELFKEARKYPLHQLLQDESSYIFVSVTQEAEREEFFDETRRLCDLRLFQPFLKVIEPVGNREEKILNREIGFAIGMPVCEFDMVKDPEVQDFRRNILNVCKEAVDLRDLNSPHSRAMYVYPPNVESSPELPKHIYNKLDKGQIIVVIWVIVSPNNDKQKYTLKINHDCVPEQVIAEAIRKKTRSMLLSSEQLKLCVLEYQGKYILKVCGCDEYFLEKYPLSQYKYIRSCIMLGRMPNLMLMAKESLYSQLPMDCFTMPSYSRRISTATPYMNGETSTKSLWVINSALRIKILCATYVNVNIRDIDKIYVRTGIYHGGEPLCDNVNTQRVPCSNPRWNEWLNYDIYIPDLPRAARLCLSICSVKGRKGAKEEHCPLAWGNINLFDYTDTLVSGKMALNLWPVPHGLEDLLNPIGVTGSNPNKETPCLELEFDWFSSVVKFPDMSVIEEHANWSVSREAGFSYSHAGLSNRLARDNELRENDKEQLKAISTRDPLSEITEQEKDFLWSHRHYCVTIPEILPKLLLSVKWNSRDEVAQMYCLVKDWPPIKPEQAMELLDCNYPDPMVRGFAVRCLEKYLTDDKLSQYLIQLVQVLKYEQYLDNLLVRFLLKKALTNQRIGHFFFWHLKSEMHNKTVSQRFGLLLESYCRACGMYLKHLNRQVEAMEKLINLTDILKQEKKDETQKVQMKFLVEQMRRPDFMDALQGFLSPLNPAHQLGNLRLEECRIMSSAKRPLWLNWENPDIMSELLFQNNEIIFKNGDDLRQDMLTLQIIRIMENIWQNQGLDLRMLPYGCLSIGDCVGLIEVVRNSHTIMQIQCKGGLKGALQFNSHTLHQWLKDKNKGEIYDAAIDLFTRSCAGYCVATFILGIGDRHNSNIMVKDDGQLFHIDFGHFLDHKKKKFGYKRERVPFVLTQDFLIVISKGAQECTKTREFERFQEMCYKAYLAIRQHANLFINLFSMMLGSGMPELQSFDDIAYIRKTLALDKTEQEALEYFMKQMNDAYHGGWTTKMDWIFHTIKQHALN
Assay [10] deals with Testis-specific serine/threonine-protein kinase 1 (Homo sapiens) (UniProt Q9BXA7). The settings on record: Compound concentration 1000.0 nM.
Chain of Testis-specific serine/threonine-protein kinase 1 (Homo sapiens) (Q9BXA7 whole entry): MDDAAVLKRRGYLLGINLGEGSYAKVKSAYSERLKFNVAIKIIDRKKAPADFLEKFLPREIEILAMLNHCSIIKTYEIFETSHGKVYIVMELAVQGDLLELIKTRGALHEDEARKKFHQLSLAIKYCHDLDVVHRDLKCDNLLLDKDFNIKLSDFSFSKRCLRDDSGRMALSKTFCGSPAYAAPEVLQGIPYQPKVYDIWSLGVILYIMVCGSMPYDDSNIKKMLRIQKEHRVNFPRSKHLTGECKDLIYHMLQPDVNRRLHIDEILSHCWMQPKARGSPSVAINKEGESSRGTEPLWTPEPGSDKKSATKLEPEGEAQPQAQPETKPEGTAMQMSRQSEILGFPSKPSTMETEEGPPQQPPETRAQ
Assay [11] concerns the target 5-hydroxytryptamine receptor 6 (Homo sapiens) (UniProt P50406). As to conditions: Compound concentration 10.0 uM.
Assay [12] addresses GABA-A receptor; anion channel (Rattus norvegicus) (UniProt O09028+P15431+P18506+P18508+P19969+P20236+P23574+P23576+P28471+P28473+P30191+P62813+P63079+P63138+Q91ZM7+Q9ES14). The settings on record: Compound concentration 10.0 uM.
In assay [13] the target is Muscarinic acetylcholine receptor M1 (Homo sapiens) (UniProt P11229). The settings on record: Compound concentration 10.0 uM.
Assay [14] has as its target Muscarinic acetylcholine receptor M5 (Homo sapiens) (UniProt P08912). The settings on record: Compound concentration 10.0 uM.
In assay [15] the target is Sigma intracellular receptor 2 (Homo sapiens) (UniProt Q5BJF2). The settings on record: Compound concentration 10.0 uM.
Chain of Sigma intracellular receptor 2 (Homo sapiens) (Q5BJF2 whole entry): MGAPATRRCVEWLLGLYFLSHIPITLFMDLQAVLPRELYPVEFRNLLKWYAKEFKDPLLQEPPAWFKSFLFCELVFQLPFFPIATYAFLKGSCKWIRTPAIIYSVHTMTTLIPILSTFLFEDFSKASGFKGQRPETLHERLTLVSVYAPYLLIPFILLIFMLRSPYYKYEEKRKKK
For assay [16], the target named is Sigma non-opioid intracellular receptor 1 (Homo sapiens) (UniProt Q99720). As to conditions: Compound concentration 10.0 uM.
Chain of Sigma non-opioid intracellular receptor 1 (Homo sapiens) (Q99720 whole entry): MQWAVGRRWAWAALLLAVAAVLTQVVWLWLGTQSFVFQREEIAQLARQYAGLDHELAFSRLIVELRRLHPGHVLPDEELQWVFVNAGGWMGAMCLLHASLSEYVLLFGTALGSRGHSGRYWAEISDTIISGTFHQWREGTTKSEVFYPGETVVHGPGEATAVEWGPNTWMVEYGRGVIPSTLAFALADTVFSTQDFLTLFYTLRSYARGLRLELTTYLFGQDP
Assay [17] has as its target Death-associated protein kinase 3 (Homo sapiens, UniProt O43293). The experiment in a line: Inhibition of DAPK3 at compound concentration of 10.0 uM using the ScanMax (DiscoverX).
Assay [18] has as its target G protein-coupled receptor kinase 3 (Homo sapiens, UniProt P35626). The assay is described as follows: Inhibition of GRK3 at compound concentration of 10.0 uM using the ScanMax (DiscoverX).
The target in assay [19] is 5-hydroxytryptamine receptor 1D (Homo sapiens) (UniProt P28221). The settings on record: Compound concentration 10.0 uM.
The target of assay [20] is 5-hydroxytryptamine receptor 5A (Homo sapiens) (UniProt P47898). The settings on record: Compound concentration 10.0 uM.
Chain of 5-hydroxytryptamine receptor 5A (Homo sapiens) (P47898 whole entry): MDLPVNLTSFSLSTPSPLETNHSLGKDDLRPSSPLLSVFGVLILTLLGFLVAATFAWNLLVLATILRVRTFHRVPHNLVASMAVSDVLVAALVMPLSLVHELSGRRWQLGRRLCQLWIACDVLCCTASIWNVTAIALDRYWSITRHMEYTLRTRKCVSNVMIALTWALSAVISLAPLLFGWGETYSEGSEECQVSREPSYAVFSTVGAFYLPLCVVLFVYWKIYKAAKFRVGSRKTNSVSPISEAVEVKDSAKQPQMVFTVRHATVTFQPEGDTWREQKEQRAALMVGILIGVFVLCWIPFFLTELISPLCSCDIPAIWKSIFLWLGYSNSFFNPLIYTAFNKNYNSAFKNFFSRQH
Assay [21] deals with 5-hydroxytryptamine receptor 7 (Homo sapiens) (UniProt P34969). The settings on record: Compound concentration 10.0 uM.
Assay [22] concerns the target Histamine H1 receptor (Homo sapiens) (UniProt P35367). As to conditions: Compound concentration 10.0 uM.
Assay [23] addresses Alpha-1A adrenergic receptor (Homo sapiens) (UniProt P35348). The settings on record: Compound concentration 10.0 uM.
The target of assay [24] is Muscarinic acetylcholine receptor M4 (Homo sapiens) (UniProt P08173). As to conditions: Compound concentration 10.0 uM.

Chain of Muscarinic acetylcholine receptor M5 (Homo sapiens) (P08912 whole entry): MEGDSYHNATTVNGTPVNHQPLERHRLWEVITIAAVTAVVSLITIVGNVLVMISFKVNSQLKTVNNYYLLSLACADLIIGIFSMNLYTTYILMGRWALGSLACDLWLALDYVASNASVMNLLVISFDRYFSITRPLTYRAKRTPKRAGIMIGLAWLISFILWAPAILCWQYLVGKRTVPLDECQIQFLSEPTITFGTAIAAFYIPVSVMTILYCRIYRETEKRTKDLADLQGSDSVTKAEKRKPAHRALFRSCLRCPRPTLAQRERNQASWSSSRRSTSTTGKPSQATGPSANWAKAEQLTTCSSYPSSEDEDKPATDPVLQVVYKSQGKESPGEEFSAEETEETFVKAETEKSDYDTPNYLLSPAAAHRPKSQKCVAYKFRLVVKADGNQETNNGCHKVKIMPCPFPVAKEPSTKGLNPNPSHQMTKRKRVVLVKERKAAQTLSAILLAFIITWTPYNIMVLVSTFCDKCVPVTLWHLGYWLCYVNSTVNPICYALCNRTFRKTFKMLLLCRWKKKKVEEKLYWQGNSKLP
Chain of G protein-coupled receptor kinase 3 (P35626 whole entry): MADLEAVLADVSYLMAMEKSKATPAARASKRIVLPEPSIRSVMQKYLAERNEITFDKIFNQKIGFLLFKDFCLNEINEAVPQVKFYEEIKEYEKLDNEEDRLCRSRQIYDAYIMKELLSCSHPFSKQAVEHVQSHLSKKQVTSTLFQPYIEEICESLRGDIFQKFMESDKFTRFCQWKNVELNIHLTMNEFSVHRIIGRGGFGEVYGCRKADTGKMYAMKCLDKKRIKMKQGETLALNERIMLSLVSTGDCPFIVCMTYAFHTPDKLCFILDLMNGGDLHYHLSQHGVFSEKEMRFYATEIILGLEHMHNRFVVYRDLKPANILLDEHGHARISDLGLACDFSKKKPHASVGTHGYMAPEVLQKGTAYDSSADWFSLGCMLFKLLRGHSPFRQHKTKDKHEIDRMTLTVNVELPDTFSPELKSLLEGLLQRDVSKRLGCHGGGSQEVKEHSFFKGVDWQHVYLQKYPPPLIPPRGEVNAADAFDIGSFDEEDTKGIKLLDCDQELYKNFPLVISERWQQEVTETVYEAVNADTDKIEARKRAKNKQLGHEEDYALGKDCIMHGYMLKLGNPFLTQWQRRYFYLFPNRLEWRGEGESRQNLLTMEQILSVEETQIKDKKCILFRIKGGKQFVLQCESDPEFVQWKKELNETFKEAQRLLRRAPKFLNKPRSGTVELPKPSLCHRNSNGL
Chain of 5-hydroxytryptamine receptor 6 (Homo sapiens) (P50406 whole entry): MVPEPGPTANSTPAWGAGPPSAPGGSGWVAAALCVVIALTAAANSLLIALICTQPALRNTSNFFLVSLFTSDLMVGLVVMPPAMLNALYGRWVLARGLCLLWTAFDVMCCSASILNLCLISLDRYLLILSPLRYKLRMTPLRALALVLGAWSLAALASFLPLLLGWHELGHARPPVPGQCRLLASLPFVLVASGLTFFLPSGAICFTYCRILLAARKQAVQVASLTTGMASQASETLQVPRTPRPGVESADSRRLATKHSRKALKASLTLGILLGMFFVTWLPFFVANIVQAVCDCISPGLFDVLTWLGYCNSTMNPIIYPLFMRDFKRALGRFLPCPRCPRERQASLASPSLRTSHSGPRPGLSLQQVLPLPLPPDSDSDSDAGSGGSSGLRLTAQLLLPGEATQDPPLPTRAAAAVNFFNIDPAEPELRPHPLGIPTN

In general, Kd refers to the equilibrium constant for the complex coming apart. A word on the Ki: it is a dissociation constant, usually derived from enzyme kinetics or from competition with a known ligand. The term inhibition denotes the change of the read-out against control, counted positive when it falls. As for `O=c1nc(-c2ccccn2)sc2ccccc12` [BTZO-1], the Kd in assay [1] was > 10000 nM (not active); in [4] it was 68.6 nM (active); in [5], 157 nM (active). In addition, in assay [2], the inhibition constant (Ki) amounted to 934 nM. The MEC1.5 in [3] was 16 nM. The residual activity in [6] was 68%; in [7] it was 100%; in [8], 100%; in assay [9] it was 94%; in assay [10], 100%. The inhibition in assay [11] is -1.33%; in [12], 6.23%; in assay [13] it was -5.27%; in [14] it was -7.5%; in assay [15], 12.5%; in [16] it was 14%.
As to `O=C1NC(c2ccccn2)Sc2ccccc21` (stereo not given) [BTZO-4], the Kd in [17] and in assay [18] was > 10000 nM (not active) each time. Further, the residual activity in assay [6] was 77%; in assay [7], 100%; in assay [8], 100%; in [9], 67%; in [10] it was 66%. For the same molecule, the inhibition was -4.84% in assay [19]; 1.93% in assay [20]; -5.1% in [21]; 49.9% in assay [22]; -9.97% in assay [23]; -4.7% in assay [24]. In addition, the inhibition in assay [14] is 0.557%.
